One series has as its system Litomosoides carinii. Nature of the series: Filaricidal activity in cotton rats infected with Litomosoides carinii. The class given is in vivo, Litomosoides carinii in cotton rats (Sigmodon hispidus). To be noted: s.c., treated 14 weeks after infection, dissected 42 days after treatment; for ED90: Litomosoides carinii, sc, 1008 h, read-out: ED90 (dosage at which 90% of the worms removed from the pleural cavity are dead). How it is done: (§1) The filaricidal activity of the compounds of formula I can be determined, for example, on cotton rats (Sigmodon hispidus) which have been infected with Litomosoides carinii. The infection with L. carinii is transmitted by the blood-sucking mite Bdellonyssus bacoti in which the development of the microfilaria to infectious larvae takes place. The cotton rats are infected by exposing them to bites of infected mites. 14 weeks after the infection groups of 2-4 animals are treated subcutaneously with the compound to be tested. 42 days after treatment with the compound to be tested the experimental animals are dissected, whereby the adult filaria are removed from the pleural cavity. Living and dead or encapsulated worms are separated from one another and weighed. The filaricidal activity is expressed as the percentage proportion of dead macrofilaria per treatment group. The ED90 is then determined by means of […] analysis using the values from different dosage groups. The ED90 is that dosage at which 90% of the worms removed from the pleural cavity are dead. In the following Table there are compiled the results which have been obtained in the previously described test with representative members of the class of compound defined by general formula I. Moreover, the Table contains data concerning the acute toxicity of some of these compounds in mg per kg in the case of single oral administration to mice.

The nature of series [1]: Acute toxicity, single oral administration to mice. To be noted: mouse, in vivo, p.o. As for the experimental part: as §1

Experimental findings from patent publication US4831151A, “Antimicrobial imidazolium derivatives” (Hoffmann-La Roche Inc., priority 1985, dated 1989) are described below.

Counter-ions that a name gives are not always drawn.

In the case of `CCc1n(N=Cc2ccc(N(C)C)cc2)cc[n+]1N=Cc1ccc([N+](=O)[O-])cc1`, in the series with Litomosoides carinii, the ED90 is under 1 mg/kg.

As to `CCc1n(N=Cc2ccc(N(C)C)cc2)cc[n+]1N=Cc1ccc(N(C)C)cc1` [1,3-bis[[(p-dimethylamino)benzylidene]amino]-2-ethylimidazolium acetate], the ED90 with Litomosoides carinii stood at 0.25 mg/kg.

In general, LD50 refers to the dose expected to kill half of the subjects tested. A high value points to lower toxicity. For the compound `CCc1n(N=Cc2ccc(N(C)C)c3ccccc23)cc[n+]1N=Cc1ccc(N(C)C)c2ccccc12.[Cl-]` [1,3-bis[[[4-(dimethylamino)-1-naphthyl]methylidene]amino]-2-ethyl-imidazolium chloride], in the series with Litomosoides carinii, the ED90 came to 3 mg/kg. Also, the LD50 in series [1] was 312 to 625 mg/kg.

In the case of `CCc1n(N=Cc2ccc(N(C)C)cc2)cc[n+]1N=Cc1ccc(N(C)C)cc1.[Cl-]` [1,3-bis[[p-(dimethyl-amino)benzylidene]amino]-2-ethylimidazolium chloride], in the series on Litomosoides carinii, the ED90 came to 0.4 mg/kg. Also, the LD50 in series [1] is 62.5 to 125 mg/kg.

With `CCCc1n(N=Cc2ccc(N(C)C)cc2)cc[n+]1N=Cc1ccc(N(C)C)cc1.[Cl-]` [1,3-bis[[p-(dimethylamino)benzylidene]amino]-2-propyl-imidazolium chloride], in the series with Litomosoides carinii, the ED90 was under 0.25 mg/kg. Moreover, in series [1], the LD50 was in the range of 62.5 to 125 mg/kg.

With `CCc1n(N=Cc2ccc(N(CC)CC)cc2)cc[n+]1N=Cc1ccc(N(CC)CC)cc1` [1,3-bis[[p-diethylamino)benzylidene]amino]-2-ethyl-imidazolium chloride], the ED90 in the series with Litomosoides carinii was found to be 0.75 mg/kg.

As for `CCCCc1n(N=Cc2ccc(N(C)C)cc2)cc[n+]1N=Cc1ccc(N(C)C)cc1.[Cl-]` [2-butyl-1,3-bis[[p-(dimethylamino)benzylidene]amino]imidazolium chloride], the ED90 in the series with Litomosoides carinii was under 0.25 mg/kg.

As to `Cc1n(N=Cc2ccc(N(C)C)cc2)cc[n+]1N=Cc1ccc(N(C)C)cc1` [drawing 12, 1,3-bis[[p-(dimethylamino)benzylidene]amino]-2-methylimidazolium salts], the “ED90 (dosage at which 90% of the worms removed from the pleural cavity are dead)” value in the series on Litomosoides carinii stood at 1.6 mg/kg. The same compound displayed an LD50 in series [1] of 80 to 156 mg/kg.

On to `Cc1n(N=Cc2ccc(N(C)C)cc2)cc[n+]1N=Cc1ccc(N(C)C)cc1` [drawing 13, 1,3-bis[[(p-dimethylamino)benzylidene]amino]-2-methylimidazolium acetate], for which the ED90 in the series on Litomosoides carinii stood at 0.85 mg/kg.
